The source of these data is patent US11591366B2, “Macrocyclic compounds and methods of preventing or treating pain” (SOCPRA SCIENCES SANTÉ ET HUMAINES S.E.C., priority 2017, dated 2023).

SMILES strings stand for the structures.

One series addresses T1, rNTS2 receptor (Rattus norvegicus, UniProt Q63384).
T1 construct: expressed in transfected cells; host or cells: DRG-F11 cells, transient transfection, membranes
T1 sequence (Q63384 1-416): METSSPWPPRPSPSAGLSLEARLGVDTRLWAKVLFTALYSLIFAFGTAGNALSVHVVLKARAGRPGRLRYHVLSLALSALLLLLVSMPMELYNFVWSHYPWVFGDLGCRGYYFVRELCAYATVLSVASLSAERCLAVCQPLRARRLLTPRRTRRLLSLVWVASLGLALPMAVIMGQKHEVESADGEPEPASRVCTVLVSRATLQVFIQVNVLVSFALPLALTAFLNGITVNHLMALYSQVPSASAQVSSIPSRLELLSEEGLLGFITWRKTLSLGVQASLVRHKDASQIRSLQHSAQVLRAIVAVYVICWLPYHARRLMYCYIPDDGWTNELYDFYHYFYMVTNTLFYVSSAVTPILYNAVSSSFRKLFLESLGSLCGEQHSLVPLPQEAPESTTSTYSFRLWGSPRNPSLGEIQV
Kind of series: Competitive radioligand binding assay on the rNTS2 receptor. To be noted: 1 μM macrocycle dose; read-out: NTS2 % displ at 1 μM (radiolabeled neurotensin displaced). The protocol:
DRG-F11 cells were cultured in DMEM supplemented with 10% FBS, 100 U/mL penicillin, 100 μg/mL streptomycin, and 20 mM HEPES.
Membranes were prepared by scraping cells off the culture dish with 50 mM Tris ph 7.5 and centrifuged at 15,000 g for 5 min at 4° C. The pellet was resuspended in 10 mM Tris, 1 mM EDTA pH 7.5 and sonicated for 30 s prior to be centrifugated at 15,000 g for 30 min at 4° C. The pellet was then re-suspended in binding 9 buffer. […] All other steps in binding experiments were unchanged comparing to the one using the NTS1 receptor.

Another series addresses T2, hNTS1 (Gαq pathway) (Homo sapiens, UniProt P30989).
T2 construct: expressed in transfected cells; host or cells: CHO-K1, transient transfection with PEI
Put plainly: BRET biosensor assay, Gαq dissociation. It is filed as cell-based. For orientation: Bioluminescence resonance energy transfer reports proximity on the nanometre scale.

Series [1] has as its target T3, hNTS1 (β-arrestin 2 recruitment) (Homo sapiens, UniProt P30989).
T3 construct: expressed in transfected cells; host or cells: CHO-K1, transient transfection with PEI
Put plainly: BRET biosensor assay, β-arrestin 2 recruitment. It is filed as cell-based.
Method: CHO-K1 cells were cultured in DMEM-F12 supplemented with 10% FBS, 100 U/mL penicillin, 100 μg/mL streptomycin, and 20 mM HEPES at 37° C. in a humidified chamber at 5% CO2. Cells were seeded into T75 flasks at a density of 20 000 cells/cm^2; 24 h later, cells were transfected with plasmids coding for hNTS1-Green fluorescent protein 10(GFP10)/Rluc (Renilla Luciferase)II-β-arrestin 1 or hNTS1-GFP10/RlucII-β-arrestin2, or with hNTS1/Gαq-RlucII/Gβ1/IGFP10-Gγ1 or hNTS1/Gα13-RlucII/Gβ1/GFP10-Gγ1 using polyethylenimine (PEI). Cells were transferred into 96-well plates at a concentration of 50 000 cells/well 24 h after transfection and incubated at 37° C. overnight. They were then washed with PBS and 90 μL HBSS was added in each well. […] After stimulation, coelenterazine 400A was added in each well to a final concentration of 5 μM and the plate was read using filter selected for BRET2 measurement (BRET2 High efficiency filter set, λemRlucII: 410±80 nm, λemGFP10: 515±40 nm) on a Mithras 2 plate reader (Berthold Technologies, Tennessee, USA). BRET2 ratio was determined as GFP10em/RlucIIem. […] EC50 (Effective Concentration 50) values were determined using the dose response-stimulation log(agonist) vs response (three parameters) and represent the mean±SEM of at least three separate experiments, each performed in triplicate.
NTS1 is capable of activating several signaling pathways, thus the activation of Gαq, Gα13, β-arrestin 1 and β-arrestin 2 pathways was monitored. The ability of compounds of the invention to activate the NTS1 receptor was assessed using Bioluminescence Resonance Energy Transfer (BRET)-based biosensors, reporting the dissociation of G proteins (Table III, column EC50 Gq) and the recruitment of β-arrestins to the receptor (Table III, column EC50 βarr).

A short description of another series: Plasma stability assay. The following applies: rat plasma at 37° C. It is filed as in vitro ADME. The protocol: Rat plasma was obtained by centrifugation of rat blood (13000 rpm, 5 min, 4° C.). […] Proteolytic degradation was quenched by adding 70 μL of acetonitrile/ethanol (1:1), 0.5% nicotinamide solution and vortexing. […] Data were analyzed using GraphPad Prism 7's one phase decay equation.

The subject of series [2] is Sprague-Dawley rats. Kind of series: Tail-flick test (acute pain). It is filed as in vivo. The following applies: rat. The protocol:
(§1) Experiments were performed with adult male Sprague-Dawley rats, weighing 225-300 g (Charles River laboratories, St-Constant, Canada). Rats were housed two per cage on Aspen shavings in a quiet room and kept on a 12 h light/dark cycle and allowed ad libitum access to food and water. The experimental procedures in this study were approved by the Animal Care Committee of Université de Sherbrooke (animal care protocol 035-13) and were in accordance with policies and directives of the Canadian Council on Animal Care.
Acute pain was assessed using the tail-flick test (Tail-Flick Analgesia meter V2.00, Colombus Instruments, Columbus, Ohio, USA). Tail-flick test measures sensitivity to a high-intensity light beam focused on the rat tail. The tail-flick apparatus was set at a light intensity of 6 and a cutoff of 10 sec. The latency, in seconds, to flick the tail out of the path of the light beam corresponds to the measure of pain sensitivity or analgesia.
Before testing, animals were individually acclimatized to manipulations and behavioral apparatus 5 min/day for three consecutive days. On the test day, latencies baseline measures were taken before drug injection to provide a mean baseline. […] The effects of compounds or saline on thermal nociception were assessed every 10 min for up to 60 min following i.t. administration.
Tail-flick latencies were converted into the percent maximal possible effect (% MPE) at the time of maxima peak of analgesia. % MPE were calculated according to the following formula: % MPE=[(Test latency)−(Saline latency)]/[(Cutoff)−(Saline latency)]×100. Data are expressed as mean±SEM of 3-8 animals for each different compound.
(§2) Data are expressed as mean±standard errors of the mean (SEM). All graphs and statistical analysis were performed using GraphPad Prism™ 7 (GraphPad software, La Jolla, Calif., USA). […] A difference in response was considered significant with p-values *p<0.05, **p<0.01, and ***p<0.001. […] Then, ED values were determined using the dose-response-stimulation log(agonist) vs response (three parameters).

The subject of series [3] is Sprague-Dawley rats. Put plainly: Formalin test (tonic pain). It is filed as in vivo. The following applies: rat, i.t., 30 μg/kg. The protocol:
as §1
5 min after intrathecal injection of compounds at 30 μg/kg, the rats received 50 μl of diluted 2% formaldehyde (i.e. 5% formalin; Bioshop, Burlington, Ontario) into the plantar surface of the right hind paw. […] Nociceptive behaviors were assessed using a weighted score as described previously. […] The weighted average pain intensity score ranging from 0 to 3 was then calculated by multiplying the time spent in each category by the category weight, summing these products, and dividing by the total time in a given time interval. The pain score was thus calculated from the following formula (1T1+2T2+3T3)/180 where T1, T2, and T3 are the durations (in seconds) spent in behavioral categories 1, 2, or 3, respectively, during each 180-sec block. […]
Data are expressed as mean±standard errors of the mean (SEM). […]

Series [4] concerns Sprague-Dawley rats. Put plainly: Body temperature (hypothermia). It is filed as in vivo. To be noted: rat; text says i.v., figure legend and method i.t. The protocol:
Body temperature was measured using a thermistor probe inserted into the rectum of adult Sprague-Dawley rats. Prior to testing, animals were individually acclimatized to manipulations and thermistor probe 5 min/day for three consecutive days. On the test day, temperature was measured before (baseline) and each 10 min for up to 60 min following intrathecal drug administration of compounds. […] Changes in body temperature (Δ body temp) were determined from baseline for each time and each animal. Data represent the mean±SEM of 3-16 rats for each condition.
as §2

Another series concerns rats. Put plainly: Blood pressure (hypotension). The format is in vivo, rat. To be noted: 0.01 mg/kg. Here is the method:
Mean, systolic and diastolic arterial blood pressure and a heart rate were measured through a catheter (PE 50 filled with heparinized saline) inserted in the right carotid artery and connected to a Micro-Med™ transducer (model TDX-300, USA) linked to a blood pressure Micro-Med™ analyzer (model BPA-100c). Another catheter (PE 10 filled with heparinized saline) was inserted in the left jugular vein for injection of test compounds at 0.01 mg/kg (volume 1 mL/kg, 5-10 s) or 0.9% saline. Blood pressure was recorded each second for up to 900 seconds following intravenous injection.

T3 sequence (P30989 whole entry): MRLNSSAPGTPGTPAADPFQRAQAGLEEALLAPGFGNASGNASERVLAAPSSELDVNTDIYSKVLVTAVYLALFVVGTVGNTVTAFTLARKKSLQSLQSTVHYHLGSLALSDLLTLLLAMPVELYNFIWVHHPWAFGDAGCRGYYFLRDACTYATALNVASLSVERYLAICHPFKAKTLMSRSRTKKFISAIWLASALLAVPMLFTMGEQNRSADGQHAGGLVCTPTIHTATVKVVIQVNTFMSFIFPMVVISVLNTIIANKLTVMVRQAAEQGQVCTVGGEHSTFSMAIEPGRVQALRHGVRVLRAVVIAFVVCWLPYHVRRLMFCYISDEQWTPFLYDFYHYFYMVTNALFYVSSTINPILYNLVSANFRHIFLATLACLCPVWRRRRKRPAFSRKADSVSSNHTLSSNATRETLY
T3 sequence (P32121 whole entry partner): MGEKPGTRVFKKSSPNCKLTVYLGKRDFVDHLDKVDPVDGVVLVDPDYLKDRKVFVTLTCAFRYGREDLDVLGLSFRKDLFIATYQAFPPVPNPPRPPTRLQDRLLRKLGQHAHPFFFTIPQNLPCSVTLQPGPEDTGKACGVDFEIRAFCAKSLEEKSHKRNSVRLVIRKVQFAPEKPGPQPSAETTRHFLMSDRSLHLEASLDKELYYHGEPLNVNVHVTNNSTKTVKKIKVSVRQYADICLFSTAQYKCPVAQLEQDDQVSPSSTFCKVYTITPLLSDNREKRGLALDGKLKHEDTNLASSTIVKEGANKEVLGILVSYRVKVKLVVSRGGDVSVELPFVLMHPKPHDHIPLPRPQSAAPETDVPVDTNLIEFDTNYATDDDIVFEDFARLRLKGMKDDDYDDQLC
T2 sequence (P30989 whole entry): as the sequence (P30989 whole entry) above
Method for hNTS1 (Gαq pathway): CHO-K1 cells were cultured in DMEM-F12 supplemented with 10% FBS, 100 U/mL penicillin, 100 μg/mL streptomycin, and 20 mM HEPES at 37° C. in a humidified chamber at 5% CO2. Cells were seeded into T75 flasks at a density of 20 000 cells/cm^2; 24 h later, cells were transfected with plasmids coding for hNTS1-Green fluorescent protein 10(GFP10)/Rluc (Renilla Luciferase)II-β-arrestin 1 or hNTS1-GFP10/RlucII-β-arrestin2, or with hNTS1/Gαq-RlucII/Gβ1/IGFP10-Gγ1 or hNTS1/Gα13-RlucII/Gβ1/GFP10-Gγ1 using polyethylenimine (PEI). Cells were transferred into 96-well plates at a concentration of 50 000 cells/well 24 h after transfection and incubated at 37° C. overnight. […] After stimulation, coelenterazine 400A was added in each well to a final concentration of 5 μM and the plate was read using filter selected for BRET2 measurement (BRET2 High efficiency filter set, λemRlucII: 410±80 nm, λemGFP10: 515±40 nm) on a Mithras 2 plate reader (Berthold Technologies, Tennessee, USA). BRET2 ratio was determined as GFP10em/RlucIIem. […] EC50 (Effective Concentration 50) values were determined using the dose response-stimulation log(agonist) vs response (three parameters) and represent the mean±SEM of at least three separate experiments, each performed in triplicate.
NTS1 is capable of activating several signaling pathways, thus the activation of Gαq, Gα13, β-arrestin 1 and β-arrestin 2 pathways was monitored. […]

As to `CCC(C)[C@H](NC(=O)[C@@H]1Cc2ccc(O)c(c2)CC=CCNCCC[C@H](N)C(=O)N[C@@H](CCCCN)C(=O)N2CCC[C@H]2C(=O)N1)C(=O)N[C@@H](CC(C)C)C(=O)O` (some centres unmarked) [Compound 7, c[Orn(All)KPY(All)]IL], at rNTS2 receptor, the inhibition at 1 µM came out at 66%. Further, the EC50 – broadly, the concentration at which the effect is half-maximal – on hNTS1 (Gαq pathway) worked out at 3 ± 0.05 nM. This compound returned an EC50 in series [1] of 3 ± 0.05 nM. In addition, in “Plasma stability assay”, the half-life (usually the time needed for the level to fall by half in the phase considered) at […] amounted to 30 min. The “ED50, tail-flick latency (from AUC)” value with Sprague-Dawley rats [2] (i.t. injection) stood at 4.63 µg/kg. In addition, the “Maximal possible effect (MPE)” value in the series on Sprague-Dawley rats [2] (i.t., 30 μg/kg, 10 min post-injection) worked out at 50%. Also, the “Dose at which the analgesic effect reached a plateau” value with Sprague-Dawley rats [2] (i.t., tail-flick) is given as “around 10 μg/kg”. Besides, in the series with Sprague-Dawley rats [2] (intrathecal, 30 μg/kg), the “Tail-flick latency versus saline/baseline” value is recorded as “sustainably increased”. The “Pain score during the inflammatory phase (AUC)” value in the series on Sprague-Dawley rats [3] is “significantly reduced”. Moreover, the “ED50, hypothermia (from AUC)” value with Sprague-Dawley rats [4] is 1.96 μ/kg. In addition, in the series with rats, the “Hypotension (I.V.)” value is “Triphasique”. In the series with rats (rat, i.v.), the “Arterial blood pressure response” value is given as “triphasic”; the “Blood pressure drop, first phase” value is recorded as “about −25 mmHg”; the “Blood pressure in phase 3” value is reported as “slowly returned towards baseline”.
